Assay results reported in article PMC6396489 (Cell Communication and Signaling : CCS, 2019).
Changes are numbered by the printed parent chain. Read-outs that look alike come from different tables or passages of the source.

Assays:
Shp1 [1] = molecular target: T1, Shp1 (Homo sapiens, UniProt P29350); assay: SPR competition assay with free GroPIns4P; conditions: Shp1 1.2 μM; read-out: EC50 of competition with Shp1 binding to GroPIns4P-Bio chip
T1 construct: the C-terminal truncated form of human Shp1 cDNA (His-Shp1; amino acids 1–529); made in house; host or cells: E. coli BL21(DE3)
T1 sequence (P29350 1-529 isoform P29350-3): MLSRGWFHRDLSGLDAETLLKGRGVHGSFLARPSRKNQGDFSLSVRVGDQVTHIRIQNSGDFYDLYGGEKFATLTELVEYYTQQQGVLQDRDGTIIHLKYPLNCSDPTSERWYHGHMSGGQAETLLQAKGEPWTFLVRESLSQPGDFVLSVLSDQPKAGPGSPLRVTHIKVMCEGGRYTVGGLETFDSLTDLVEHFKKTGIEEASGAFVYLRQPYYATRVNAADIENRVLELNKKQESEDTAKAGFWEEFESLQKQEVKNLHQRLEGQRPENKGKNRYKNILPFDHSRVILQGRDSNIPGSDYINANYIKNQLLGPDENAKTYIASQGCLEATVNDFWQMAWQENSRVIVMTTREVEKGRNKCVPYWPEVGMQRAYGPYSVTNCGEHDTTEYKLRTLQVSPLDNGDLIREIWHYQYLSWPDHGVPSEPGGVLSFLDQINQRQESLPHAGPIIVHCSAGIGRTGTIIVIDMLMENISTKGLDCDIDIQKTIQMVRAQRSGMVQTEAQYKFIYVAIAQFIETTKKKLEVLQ
Description: For the competition experiments, SPR assays were performed at a fixed concentration of Shp1 (1.2 μM) in the presence of increasing concentrations of GroPIns4P (0.0 to 5.0 μM). Both Shp1 and GroPIns4P were dissolved in HBS-EP buffer and incubated for 10 min before injection onto the SA sensor chip. The flow was fixed to 20 μL/min, and the time of injection was 3 min. A solution of 2.0 mM glycine/HCl, pH 3.0, was used in the regeneration step to remove the analyte bond before reusing the sensor chip.

Shp1 [2] = molecular target: T1, Shp1; assay: Isothermal titration calorimetry, Shp1 WT; format: binding
Description: (§1) ITC measurements were performed by using a Nano-ITC III (TA instruments, New Castle, DE, USA) with a reaction cell volume of 1 ml kept at 25 °C. A protein solution of 10 μM was titrated into the calorimetric cell with a solution of 50–100 μM of the ligand GroPIns4P (Ins4P) in the syringe. A sequence of 16 injections of 15 μL volume was programmed with a stirring speed of 250 rpm at 500 s intervals. Protein samples were prepared with protein solutions at 25 °C in 20 mM Tris buffer pH 7.4 with 50 mM NaCl and 1 mM TCEP. To minimise the differences in buffer composition and pH between cell and syringe, both ligand and protein solutions were prepared with the same batch of buffer. The heat of dilution of the GroPIns4P into the buffer solution was measured in a separate experiment and appropriate corrections were made. The heat evolved after each ligand injection was obtained from the integral of the calorimetric signal. Raw data were integrated, corrected for non-specific heats and normalized for concentration. The equilibrium dissociation constant (KD), binding enthalpy (ΔbH) and binding stoichiometry (n) were obtained by nonlinear regression of the experimental data using a model of independent binding sites, by means of the NanoAnalyze software. Experiments were performed in duplicate.

[3] = molecular target: T2, Shp1 S118A/R138E/S140A mutant (Homo sapiens, UniProt P29350, R136E/S116A/S138A); assay: Isothermal titration calorimetry, Shp1 S118A/R138E/S140A mutant; format: binding; conditions: very small heat effect, value not with sufficient confidence
T2 construct: a tailless-form of Shp1 (residues 1–529) has previously been used [25] and it is used also in this study; 6xHis (N); made in house; host or cells: E. coli BL21(DE3)
T2 sequence (P29350 1-529 isoform P29350-3 S118A/R138E/S140A): T1 sequence (P29350 1-529 isoform P29350-3) with S118A, R138E, S140A
Description: as §1

Shp1 cSH2 domain = test system: T3, Shp1 cSH2 domain; assay: NMR 1H-15N HSQC titration of cSH2 domain; format: binding, human; conditions: fast exchange regime, cSH2:GroPIns4P up to 1:5
T3 construct: The purified C-terminal SH2 domain (cSH2) was selected for these studies; made in house
Description: A suite of triple resonance experiments (Additional file 1 Table S1) was used for assignment of the ^1H, ^15N and ^13C backbone resonances of the Shp1 cSH2 domain. All experiments were acquired on a 700 MHz Bruker Avance instrument equipped with a TCI cryoprobe. Assignment of the cSH2 domain backbone resonances was complete with the exception of the resonances of S109 and G175. ^15N cSH2 (200 μM) was titrated with GroPIns4P, and a series of ^1H–^15N-HSQC spectra were recorded at different cSH2:GroPIns4P ratios up to a 1:5 ratio. […] The ^1HN and ^15N chemical shift perturbations were estimated by using the following equation [23]: Δδ=ΔHN^2+ΔN/5^2/2^1/2
Where ΔHN and ΔN are the differences between the ^1H and ^15N chemical shifts of free cSH2 and cSH2 in the presence of GroPIns4P, respectively.

Src = test system: Src; parameters: method as in PMID 18722484; conditions: cited from earlier work

`O=P(O)(O)OC1C(O)C(O)C(OP(=O)(O)OCC(O)CO)C(O)C1O` (stereo not drawn) [GroPIns4P, glycerophosphoinositol 4-phosphate] showed an EC50 (Shp1 [1]) of about 800 nM, a Kd (Shp1 [2]; ITC, 25 °C, Shp1 WT, read-out: KD) of 300 nM and a Kd (Shp1 [2]; summary over ITC, Trp fluorescence and SPR competition, read-out: affinity of the binding) of 300 to 800 nM. For the same compound, the “KD relative to Shp1 WT” value [3] was “about one order of magnitude higher”, the “exchange rate between bound and free cSH2” value (Shp1 cSH2 domain) was “higher than 2 × 10^3 s^-1” and the “direct interaction with Src” value (Src) was “no direct interaction”.
